Data as given in PubChem BioAssay (NCI).
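Five compound concentrations were applied to cells in 96-well plates for 48 hours; endpoints were derived by simple linear interpolation of the resulting dose-response curve. Definition used: TGI = concentration required for complete inhibition of growth.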

How the values were obtained:
Assay in all cases: growth of human tumour cells (NCI), 48 h
786-0 renal = system: 786-0 renal
A498 renal = system: A498 renal
A549 NSCLC = system: A549 NSCLC
ACHN renal = system: ACHN renal
BT-549 breast = system: BT-549 breast
CAKI-1 renal = system: CAKI-1 renal
CCRF-CEM leukemia = system: CCRF-CEM leukemia
COLO 205 colon = system: COLO 205 colon
DU-145 prostate = system: DU-145 prostate
EKVX NSCLC = system: EKVX NSCLC
HCC-2998 colon = system: HCC-2998 colon
HCT-116 colon = system: HCT-116 colon
HCT-15 colon = system: HCT-15 colon
HL-60(TB) leukemia = system: HL-60(TB) leukemia
HOP-62 NSCLC = system: HOP-62 NSCLC
HOP-92 NSCLC = system: HOP-92 NSCLC
HS 578T breast = system: HS 578T breast
HT29 colon = system: HT29 colon
IGROV1 ovarian = system: IGROV1 ovarian
K-562 leukemia = system: K-562 leukemia
KM12 colon = system: KM12 colon
LOX IMVI melanoma = system: LOX IMVI melanoma
M14 melanoma = system: M14 melanoma
MALME-3M melanoma = system: MALME-3M melanoma
MCF7 breast = system: MCF7 breast
MDA-MB-231 breast = system: MDA-MB-231 breast
MDA-MB-435 = system: MDA-MB-435
MDA-N = system: MDA-N
MOLT-4 leukemia = system: MOLT-4 leukemia
NCI-H226 lung = system: NCI-H226 lung
NCI-H23 lung = system: NCI-H23 lung
NCI-H460 lung = system: NCI-H460 lung
NCI-H522 lung = system: NCI-H522 lung
NCI/ADR-RES ovarian = system: NCI/ADR-RES ovarian
OVCAR-3 ovarian = system: OVCAR-3 ovarian
OVCAR-4 ovarian = system: OVCAR-4 ovarian
OVCAR-5 ovarian = system: OVCAR-5 ovarian
OVCAR-8 ovarian = system: OVCAR-8 ovarian
PC-3 prostate = system: PC-3 prostate
RPMI-8226 leukemia = system: RPMI-8226 leukemia
RXF 393 renal = system: RXF 393 renal
SF-268 CNS = system: SF-268 CNS
SF-295 CNS = system: SF-295 CNS
SF-539 CNS = system: SF-539 CNS
SK-MEL-2 melanoma = system: SK-MEL-2 melanoma
SK-MEL-28 melanoma = system: SK-MEL-28 melanoma
SK-MEL-5 melanoma = system: SK-MEL-5 melanoma
SK-OV-3 ovarian = system: SK-OV-3 ovarian
SN12C renal = system: SN12C renal
SNB-19 CNS = system: SNB-19 CNS
SNB-75 CNS = system: SNB-75 CNS
SR leukemia = system: SR leukemia
SW-620 colon = system: SW-620 colon
T-47D breast = system: T-47D breast
TK-10 renal = system: TK-10 renal
U251 CNS = system: U251 CNS
UACC-257 melanoma = system: UACC-257 melanoma
UACC-62 melanoma = system: UACC-62 melanoma
UO-31 renal = system: UO-31 renal

## O=C(/C=C/c1cccc2ccccc12)c1ccccc1
786-0 renal
  TGI: 23.5 µM
A498 renal
  TGI: 33.3 µM
A549 NSCLC
  TGI: > 52.4 µM
ACHN renal
  TGI: 26.9 µM
BT-549 breast
  TGI: 28.5 µM
CAKI-1 renal
  TGI: 28 µM
CCRF-CEM leukemia
  TGI: 87.3 µM
COLO 205 colon
  TGI: 48.6 µM
DU-145 prostate
  TGI: 29 µM
EKVX NSCLC
  TGI: 26.3 µM
HCC-2998 colon
  TGI: 34.1 µM
HCT-116 colon
  TGI: 24.1 µM
HCT-15 colon
  TGI: 23.1 µM
HL-60(TB) leukemia
  TGI: > 21.2 µM
HOP-62 NSCLC
  TGI: 43 µM
HOP-92 NSCLC
  TGI: 33.6 µM
HS 578T breast
  TGI: > 74.9 µM
HT29 colon
  TGI: 15.8 µM
IGROV1 ovarian
  TGI: 20.5 µM
K-562 leukemia
  TGI: 8.69 µM
KM12 colon
  TGI: > 42.2 µM
LOX IMVI melanoma
  TGI: 4.53 µM
M14 melanoma
  TGI: 32.9 µM
MALME-3M melanoma
  TGI: 26.9 µM
MCF7 breast
  TGI: 15.1 µM
MDA-MB-231 breast
  TGI: 25.5 µM
MDA-MB-435
  TGI: 24.1 µM
MDA-N
  TGI: 23.9 µM
MOLT-4 leukemia
  TGI: > 34.7 µM
NCI-H226 lung
  TGI: 27.9 µM
NCI-H23 lung
  TGI: 28 µM
NCI-H460 lung
  TGI: 37.2 µM
NCI-H522 lung
  TGI: 25.2 µM
NCI/ADR-RES ovarian
  TGI: 33.6 µM
OVCAR-3 ovarian
  TGI: 22.4 µM
OVCAR-4 ovarian
  TGI: 27.1 µM
OVCAR-5 ovarian
  TGI: 28.8 µM
OVCAR-8 ovarian
  TGI: 21.6 µM
PC-3 prostate
  TGI: 20.4 µM
RPMI-8226 leukemia
  TGI: 7.98 µM
RXF 393 renal
  TGI: 27.5 µM
SF-268 CNS
  TGI: 32.6 µM
SF-295 CNS
  TGI: 35.1 µM
SF-539 CNS
  TGI: 15.6 µM
SK-MEL-2 melanoma
  TGI: 34.2 µM
SK-MEL-28 melanoma
  TGI: 33.6 µM
SK-MEL-5 melanoma
  TGI: 28.4 µM
SK-OV-3 ovarian
  TGI: 34.2 µM
SN12C renal
  TGI: 24.9 µM
SNB-19 CNS
  TGI: 30.2 µM
SNB-75 CNS
  TGI: 30.6 µM
SR leukemia
  TGI: > 100 µM
SW-620 colon
  TGI: 15.5 µM
T-47D breast
  TGI: 27.3 µM
TK-10 renal
  TGI: 17.6 µM
U251 CNS
  TGI: 22 µM
UACC-257 melanoma
  TGI: 29.7 µM
UACC-62 melanoma
  TGI: 25.3 µM
UO-31 renal
  TGI: 16.3 µM

## ClCc1nn(-c2ccccc2)c(CCl)c1CCl
786-0 renal
  TGI: 8.77 µM
A498 renal
  TGI: 24.5 µM
A549 NSCLC
  TGI: 24.5 µM
ACHN renal
  TGI: 7.62 µM
BT-549 breast
  TGI: 18.3 µM
CAKI-1 renal
  TGI: 20.6 µM
CCRF-CEM leukemia
  TGI: 6.02 µM
COLO 205 colon
  TGI: 8.95 µM
DU-145 prostate
  TGI: 16.6 µM
EKVX NSCLC
  TGI: 8.97 µM
HCC-2998 colon
  TGI: 24.7 µM
HCT-116 colon
  TGI: 7.54 µM
HCT-15 colon
  TGI: 9.06 µM
HL-60(TB) leukemia
  TGI: 6.78 µM
HOP-62 NSCLC
  TGI: 33.8 µM
HOP-92 NSCLC
  TGI: 9.85 µM
HS 578T breast
  TGI: 58.3 µM
HT29 colon
  TGI: 9.9 µM
IGROV1 ovarian
  TGI: 18.2 µM
K-562 leukemia
  TGI: 6.34 µM
KM12 colon
  TGI: 11.9 µM
LOX IMVI melanoma
  TGI: 4.29 µM
M14 melanoma
  TGI: 10.3 µM
MALME-3M melanoma
  TGI: 9.88 µM
MCF7 breast
  TGI: 16 µM
MDA-MB-231 breast
  TGI: 12.1 µM
MDA-MB-435
  TGI: 6.6 µM
MDA-N
  TGI: 8.88 µM
MOLT-4 leukemia
  TGI: 6.76 µM
NCI-H226 lung
  TGI: 13.9 µM
NCI-H23 lung
  TGI: 14.3 µM
NCI-H460 lung
  TGI: 12.5 µM
NCI-H522 lung
  TGI: 10.2 µM
NCI/ADR-RES ovarian
  TGI: > 100 µM
OVCAR-3 ovarian
  TGI: 11 µM
OVCAR-4 ovarian
  TGI: 7.61 µM
OVCAR-5 ovarian
  TGI: 15.2 µM
OVCAR-8 ovarian
  TGI: 6.17 µM
PC-3 prostate
  TGI: 18.4 µM
RPMI-8226 leukemia
  TGI: 7.18 µM
RXF 393 renal
  TGI: 15.3 µM
SF-268 CNS
  TGI: 17.4 µM
SF-295 CNS
  TGI: 26.5 µM
SF-539 CNS
  TGI: 6.34 µM
SK-MEL-2 melanoma
  TGI: 15.5 µM
SK-MEL-28 melanoma
  TGI: 12.4 µM
SK-MEL-5 melanoma
  TGI: 8.43 µM
SK-OV-3 ovarian
  TGI: 23.3 µM
SN12C renal
  TGI: 11.1 µM
SNB-19 CNS
  TGI: 19.9 µM
SNB-75 CNS
  TGI: 11.4 µM
SR leukemia
  TGI: 4.41 µM
SW-620 colon
  TGI: 11.4 µM
T-47D breast
  TGI: 16.4 µM
TK-10 renal
  TGI: 21.3 µM
U251 CNS
  TGI: 6.05 µM
UACC-257 melanoma
  TGI: 25 µM
UACC-62 melanoma
  TGI: 14.4 µM
UO-31 renal
  TGI: 11.5 µM
